This passage reports Ki results from ChEMBL document CHEMBL4014295, “Discovery and structure-activity relationship studies of N-substituted indole derivatives as novel Mcl-1 inhibitors” (Bioorg Med Chem Lett, 2017).

For assay [1], the target named is Induced myeloid leukemia cell differentiation protein Mcl-1 (Homo sapiens, UniProt Q07820). The assay is described as follows: Inhibition of 6-carboxyfluorescein succinimidyl ester fluorescence tagged-Bid BH3 peptide (79 to 99 residues) binding to Mcl-1 (unknown origin) after 30 mins by fluorescence polarization assay. (In general: Fluorescence polarisation rises when a labelled molecule tumbles more slowly, as on binding a larger partner.)
Chain of Induced myeloid leukemia cell differentiation protein Mcl-1 (Q07820 whole entry, the tested form may be a part): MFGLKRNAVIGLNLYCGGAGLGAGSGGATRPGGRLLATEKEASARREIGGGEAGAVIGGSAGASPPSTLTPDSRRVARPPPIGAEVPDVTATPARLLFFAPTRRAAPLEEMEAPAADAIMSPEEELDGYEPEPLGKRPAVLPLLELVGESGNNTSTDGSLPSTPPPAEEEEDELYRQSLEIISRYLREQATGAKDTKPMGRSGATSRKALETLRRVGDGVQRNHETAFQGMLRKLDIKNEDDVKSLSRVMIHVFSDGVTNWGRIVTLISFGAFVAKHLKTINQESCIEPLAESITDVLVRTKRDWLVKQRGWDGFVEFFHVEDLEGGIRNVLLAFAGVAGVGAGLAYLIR

Assay [2] deals with Apoptosis regulator Bcl-2 (Homo sapiens, UniProt P10415). The assay can be described thus: Inhibition of 6-carboxyfluorescein succinimidyl ester fluorescence tagged-Bid BH3 peptide (79 to 99 residues) binding to Bcl-2 (unknown origin) after 30 mins by fluorescence polarization assay.
Chain of Apoptosis regulator Bcl-2 (P10415 whole entry, the tested form may be a part): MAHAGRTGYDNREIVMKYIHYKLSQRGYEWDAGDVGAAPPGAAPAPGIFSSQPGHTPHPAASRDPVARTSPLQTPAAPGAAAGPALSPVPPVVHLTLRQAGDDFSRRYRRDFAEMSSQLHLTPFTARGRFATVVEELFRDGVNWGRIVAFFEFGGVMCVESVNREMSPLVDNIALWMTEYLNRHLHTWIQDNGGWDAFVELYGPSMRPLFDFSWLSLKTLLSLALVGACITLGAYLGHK

`Cc1cc(OCCCn2ccc3ccc(OCC(=O)O)cc32)cc(C)c1Cl`: the affinity in assay [1], expressed as Ki, was 1.5 µM. On the same count and under the same terms, under `COc1ccc(OCCCn2c(C(N)=O)cc3ccc(OCC(=O)O)cc32)cc1` stands 7.78 µM; under `Cc1cc(OCCn2ccc3ccc(OCC(=O)O)cc32)cc(C)c1Cl`, 11.6 µM. On the same count and under the same terms, under `Cc1ccc2ccn(CCCOc3cc(C)c(Cl)c(C)c3)c2c1` stands more than 30 µM; under `Cc1cc(OCCCn2ccc3ccc(OCC(=O)O)cc32)ccc1Cl`, 9.89 µM. Regarding `Cc1cc(OCCCn2ccc3cc(OCc4ccccc4C(=O)O)ccc32)cc(C)c1Cl`, the inhibitory constant (Ki) in assay [2] stood at 0.76 µM; in assay [1], 0.11 µM. In the same order, the values of `Cc1cc(OCCCn2ccc3ccc(OCc4ccccc4C(=O)O)cc32)cc(C)c1Cl` are 1.05 µM and 0.8 µM.

`Cc1cc(OCCCn2ccc3c(OCC(=O)O)cccc32)cc(C)c1Cl`: the affinity in assay [1], expressed as Ki, was 2 µM. As to `Cc1cc(OCCCn2ccc3c(OCc4cccc(C(=O)O)c4)cccc32)cc(C)c1Cl`, the Ki amounted to 0.14 µM in assay [2] and 0.15 µM in assay [1]. In the same order, the values of `Cc1cc(OCCCn2ccc3ccc(OCc4ccc(C(=O)O)cc4)cc32)cc(C)c1Cl` are 1.24 µM and 1.19 µM. In assay [1], `Cc1cc(OCCCn2ccc3ccccc32)cc(C)c1Cl` came in with a Ki of more than 30 µM. On to `Cc1cc(OCCCn2c(C(=O)N3CCCCC3)cc3ccc(OCc4ccccc4C(=O)O)cc32)cc(C)c1Cl`, for which the Ki in assay [2] was 0.27 µM; in assay [1], 0.2 µM. `Cc1cc(OCCCn2ccc3ccc(C(=O)O)cc32)cc(C)c1Cl` had a Ki in assay [1] of 3 µM.

With `CC(C)(C)Oc1ccc(OCCCn2ccc3ccc(OCC(=O)O)cc32)cc1`, in assay [1], the inhibitory constant (Ki) was determined as 1.87 µM. This Ki is about 1.6-fold lower than that of the compound before.

For the compound `Cc1cc(OCCCn2ccc3ccc(OCc4cccc(C(=O)O)c4)cc32)cc(C)c1Cl`, the Ki in assay [2] is 1.19 µM; in assay [1], 0.74 µM. In the same order, the values of `Cc1cc(OCCCn2ccc3cc(OCc4ccc(C(=O)O)cc4)ccc32)cc(C)c1Cl` are 1.41 µM and 1.63 µM. `NC(=O)c1cc2ccc(OCC(=O)O)cc2n1CCCOc1cccc2ccccc12` showed a Ki in assay [1] of 10.3 µM. The same measure, in the same setting: the result for `O=C(O)COc1ccc2ccn(CCCOc3ccccc3)c2c1` reads more than 30 µM. On to `CNC(=O)c1cc2ccc(OCc3ccccc3C(=O)O)cc2n1CCCOc1cc(C)c(Cl)c(C)c1`, for which the Ki was found to be 0.81 µM in assay [2] and 0.89 µM in assay [1].

For the compound `CCOC(=O)c1ccc2ccn(CCCOc3cc(C)c(Cl)c(C)c3)c2c1`, the Ki in assay [1] is more than 30 µM.

`Cc1cccc(OCCCn2ccc3ccc(OCC(=O)O)cc32)c1` came in with an inhibition constant (Ki) in assay [1] of more than 30 µM. Still for that read-out and setting: the result for `Cc1cc(OCCCn2ccc3cc(OCC(=O)O)ccc32)cc(C)c1Cl` reads 1.49 µM; that for `Cc1cc(OCCCn2ccc3ccc(OCCCC(=O)O)cc32)cc(C)c1Cl`, 2.68 µM.

Compound `Cc1cc2c(C(C)C)c(O)c(O)c(C=O)c2c(O)c1-c1c(C)cc2c(C(C)C)c(O)c(O)c(C=O)c2c1O` [GOSSYPOL] returned an inhibition constant (Ki) in assay [1] of 0.2 µM. Take `CC(C)(C)c1ccc(OCCCn2c(C(=O)N3CCCCC3)cc3ccc(OCc4ccccc4C(=O)O)cc32)cc1`: the results for the inhibition constant (Ki) in assay [2] and in assay [1] were 0.15 µM and 0.36 µM, respectively.

Take `Cc1cc(OCCCn2ccc3cc(OCc4cccc(C(=O)O)c4)ccc32)cc(C)c1Cl`: the Ki in assay [2] came to 0.41 µM; in assay [1], 0.2 µM. Take `CC(C)(C)Oc1ccc(OCCCn2c(C(N)=O)cc3ccc(OCC(=O)O)cc32)cc1`: the Ki in assay [1] is 5.38 µM.

In the case of `NC(=O)c1cc2ccc(OCC(=O)O)cc2n1CCCOc1ccc(Oc2ccccc2)cc1`, the affinity in assay [1], expressed as Ki, was 4.13 µM.

`Cc1cc(OCCCn2c(C(N)=O)cc3ccc(OCc4ccccc4C(=O)O)cc32)cc(C)c1Cl`: the Ki in assay [2] turned out to be 0.85 µM; in assay [1], 0.95 µM. In the same order, the values of `CC(C)(C)c1ccc(OCCCn2ccc3cc(OCc4ccccc4C(=O)O)ccc32)cc1` are 0.17 µM and 0.31 µM. With `Cc1cc(OCCCn2ccc3ccc(OCCO)cc32)cc(C)c1Cl`, the affinity in assay [1], expressed as Ki, was 2.1 µM. On the same count and under the same terms, under `COc1ccc(OCCCn2ccc3ccc(OCC(=O)O)cc32)cc1` stands 4.42 µM. `Cc1cc(OCCCn2c(C(=O)N(C)C)cc3ccc(OCc4ccccc4C(=O)O)cc32)cc(C)c1Cl`: the values for the Ki in assay [2] and in assay [1] were 0.73 µM and 0.57 µM, respectively.

As to `CC(C)(C)c1ccc(OCCn2ccc3ccc(OCC(=O)O)cc32)cc1`, the affinity in assay [1], expressed as Ki, was 8.19 µM.

In assay [1], `Cc1cc(C)cc(OCCCn2ccc3ccc(OCC(=O)O)cc32)c1` gave a Ki of 12.5 µM. On to `Cc1cc(OCCCn2ccc3c(OCc4ccccc4C(=O)O)cccc32)cc(C)c1Cl`, for which the Ki was 0.23 µM in assay [2] and 0.14 µM in assay [1]. `O=C(O)COc1ccc2ccn(CCCOc3ccc(Cl)cc3)c2c1` returned an inhibition constant Ki in assay [1] of 12.9 µM. In the case of `CC(C)(C)c1ccc(OCCCn2ccc3cc(OCc4cccc(C(=O)O)c4)ccc32)cc1`, the inhibitory constant (Ki) in assay [2] amounted to 0.47 µM; in assay [1], 0.25 µM. `CC(C)(C)c1ccc(SCCCn2ccc3ccc(OCC(=O)O)cc32)cc1` displayed a Ki in assay [1] of 2.38 µM. On the same count and under the same terms, the result for `O=C(O)COc1ccc2ccn(CCCOc3cccc4ccccc34)c2c1` reads 2.57 µM; that for `O=C(O)COc1ccc2ccn(CCCOc3ccc(Oc4ccccc4)cc3)c2c1`, 3.24 µM. In turn, `CCOC(=O)COc1ccc2ccn(CCCOc3cc(C)c(Cl)c(C)c3)c2c1` gave a Ki in assay [1] of 3.37 µM.

A word on the Ki: it is the dissociation constant of the complex between target and ligand, obtained from inhibition or displacement. A lower Ki goes with higher affinity.
